Measurements taken from ChEMBL document CHEMBL4359868, “New anthranilic acid-incorporating N-benzenesulfonamidophthalimides as potent inhibitors of carbonic anhydrases I, II, IX, and XII: Synthesis, in vitro testing, and in silico assessment” (Eur J Med Chem, 2019).

Experiments:
Carbonic anhydrase 9 [1] = biological target: T1, Carbonic anhydrase 9 (Homo sapiens, UniProt Q16790); settings: at 1 µM
Description: Inhibition of recombinant human CA9 at 10^-6 M preincubated for 15 mins by phenol red dye-based stopped-flow CO2 hydration assay

Carbonic anhydrase 9 [2] = biological target: T1, Carbonic anhydrase 9; assay: Inhibition of recombinant human CA9 at 10^-4 M preincubated for 15 mins by phenol red dye-based stopped-flow CO2 hydration assay
Carbonic anhydrase 9 [3] = biological target: T1, Carbonic anhydrase 9; settings: 10^-5 M
Description: Inhibition of recombinant human CA9 at 10^-5 M preincubated for 15 mins by phenol red dye-based stopped-flow CO2 hydration assay

Carbonic anhydrase 9 [4] = biological target: T1, Carbonic anhydrase 9; settings: at 0.1 µM
Description: Inhibition of recombinant human CA9 at 10^-7 M preincubated for 15 mins by phenol red dye-based stopped-flow CO2 hydration assay

Carbonic anhydrase 9 [5] = biological target: T1, Carbonic anhydrase 9
Description: Inhibition of recombinant human CA9 preincubated for 15 mins by phenol red dye-based stopped-flow CO2 hydration assay

Carbonic anhydrase 1 = Carbonic anhydrase 1 (Homo sapiens, UniProt P00915); assay: Inhibition of recombinant human CA1 preincubated for 15 mins by phenol red dye-based stopped-flow CO2 hydration assay
Carbonic anhydrase 12 = Carbonic anhydrase 12 (Homo sapiens, UniProt O43570)
Description: Inhibition of recombinant human CA12 preincubated for 15 mins by phenol red dye-based stopped-flow CO2 hydration assay

Carbonic anhydrase 2 = Carbonic anhydrase 2 (Homo sapiens, UniProt P00918); assay: Inhibition of recombinant human CA2 preincubated for 15 mins by phenol red dye-based stopped-flow CO2 hydration assay
Carbonic anhydrase 9 [6] = biological target: T1, Carbonic anhydrase 9; settings: at 0.01 µM
Description: Inhibition of recombinant human CA9 at 10^-8 M preincubated for 15 mins by phenol red dye-based stopped-flow CO2 hydration assay

Carbonic anhydrase 1, sequence (P00915 whole entry): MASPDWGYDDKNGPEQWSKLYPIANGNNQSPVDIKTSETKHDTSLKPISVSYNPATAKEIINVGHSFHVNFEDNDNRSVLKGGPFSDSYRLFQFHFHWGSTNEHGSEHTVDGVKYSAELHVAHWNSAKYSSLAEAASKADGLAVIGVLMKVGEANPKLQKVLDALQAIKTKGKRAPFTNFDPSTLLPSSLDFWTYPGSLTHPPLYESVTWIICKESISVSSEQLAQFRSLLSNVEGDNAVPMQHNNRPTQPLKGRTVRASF
Carbonic anhydrase 12, sequence (O43570 whole entry): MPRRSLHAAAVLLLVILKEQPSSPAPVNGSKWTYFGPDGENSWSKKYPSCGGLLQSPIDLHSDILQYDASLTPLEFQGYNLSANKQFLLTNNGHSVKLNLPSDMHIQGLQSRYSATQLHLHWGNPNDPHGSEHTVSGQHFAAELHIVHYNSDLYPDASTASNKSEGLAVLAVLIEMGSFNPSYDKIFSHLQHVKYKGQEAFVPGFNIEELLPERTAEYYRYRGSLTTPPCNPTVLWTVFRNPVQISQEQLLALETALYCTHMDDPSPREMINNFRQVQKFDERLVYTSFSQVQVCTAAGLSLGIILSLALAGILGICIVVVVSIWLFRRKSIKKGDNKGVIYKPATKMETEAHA

Compound	Ki (Carbonic anhydrase 9 [5]) [µM]	Ki (Carbonic anhydrase 1) [µM]	Ki (Carbonic anhydrase 12) [µM]	further results
O=C(O)c1ccc(N2C(=O)c3ccc(C(=O)Nc4ccc(Cl)cc4C(=O)O)cc3C2=O)cc1	0.46			inhibition (Carbonic anhydrase 9 [1]): 70%; inhibition (Carbonic anhydrase 9 [2]): 92%; inhibition (Carbonic anhydrase 9 [3]): 85%; inhibition (Carbonic anhydrase 9 [4]): 17%
COc1ccc(NC(=O)c2ccc3c(c2)C(=O)N(c2ccc(C(=O)O)cc2)C3=O)c(C(=O)O)c1	0.72			
COc1ccc(NC(=O)c2ccc3c(c2)C(=O)OC3=O)c(C(=O)O)c1	> 0.1	> 0.1	> 0.1	
CCOC(=O)c1ccc(N2C(=O)c3ccc(C(=O)Nc4ccc(OC)cc4C(=O)O)cc3C2=O)cc1	0.96			
COc1ccc(NC(=O)c2ccc3c(c2)C(=O)N(CCc2ccccc2)C3=O)c(C(=O)O)c1	31	> 100	> 100	Ki (Carbonic anhydrase 2): > 100 µM
O=C(Nc1ccc(Cl)cc1C(=O)O)c1ccc2c(c1)C(=O)OC2=O	0.052			
O=C(Nc1ccc(Cl)cc1C(=O)O)c1ccc2c(c1)C(=O)N(CCc1ccccc1)C2=O	39.6	> 100	> 100	
O=C(Nc1ccc(Cl)cc1C(=O)O)c1ccc2c(c1)C(=O)N(Cc1ccccc1)C2=O	47.3	> 100	> 100	Ki (Carbonic anhydrase 2): > 100 µM
NS(=O)(=O)c1ccc(N2C(=O)c3ccc(C(=O)Nc4ccc(Cl)cc4C(=O)O)cc3C2=O)cc1	0.0039			inhibition (Carbonic anhydrase 9 [1]): 96%; inhibition (Carbonic anhydrase 9 [6]): 63%; inhibition (Carbonic anhydrase 9 [4]): 84%
O=C(Nc1ccc(Cl)cc1C(=O)O)c1ccc2c(c1)C(=O)N(c1ccccc1)C2=O	5.5	> 100	> 100	
COc1ccc(NC(=O)c2ccc3c(c2)C(=O)N(Cc2ccc(S(N)(=O)=O)cc2)C3=O)c(C(=O)O)c1	0.036			
COc1ccc(NC(=O)c2ccc3c(c2)C(=O)N(c2ccc(S(N)(=O)=O)cc2)C3=O)c(C(=O)O)c1	0.0088			
COc1ccc(NC(=O)c2ccc3c(c2)C(=O)N(CCc2ccc(S(N)(=O)=O)cc2)C3=O)c(C(=O)O)c1	0.0082			
NS(=O)(=O)c1ccc(CCN2C(=O)c3ccc(C(=O)Nc4ccc(Cl)cc4C(=O)O)cc3C2=O)cc1	0.0073			
NS(=O)(=O)c1ccc(CN2C(=O)c3ccc(C(=O)Nc4ccc(Cl)cc4C(=O)O)cc3C2=O)cc1	0.0216			
COc1ccc(NC(=O)c2ccc3c(c2)C(=O)N(c2ccccc2)C3=O)c(C(=O)O)c1	8.2		> 100	Ki (Carbonic anhydrase 2): > 100 µM
COc1ccc(NC(=O)c2ccc3c(c2)C(=O)N(Cc2ccccc2)C3=O)c(C(=O)O)c1	41.9	> 100	> 100	
CCOC(=O)c1ccc(N2C(=O)c3ccc(C(=O)Nc4ccc(Cl)cc4C(=O)O)cc3C2=O)cc1	0.53			
